Consider 11 molecules from patent publication US4681940A, “5-[3-[[2-quinolyl]methoxy]phenyl]-1,3-oxazoles” (American Home Products Corporation, priority 1985, dated 1987).

The subject of assay [1] is LTD4 induced bronchoconstriction. In words: In vivo inhibition of bronchospasm induced in guinea pigs by exogenously administered leukotrienes C4 and/or D4. The arrangement: species or system guinea pig (male Hartley). Conditions: 10 minutes before induction of bronchospasm. Here is the method:
The assay of this Example measures the in vivo ability of the compounds of the invention to inhibit the bronchospasm induced in guinea pigs by the exogenously administered leukotrienes C4 and/or D4.
This assay is carried out as follows:
Male Hartley strain guinea pigs (350-600 g) are anesthetized with pentobarbital sodium (50 mg/kg, i.p.). The jugular vein is cannulated for injection of drugs and the carotid artery for monitoring blood pressure. The trachea is cannulated for artificial ventilation by a miniature Starling pump and for indirect measurement of respiratory volume changes as described infra. The animals are then pretreated with succinylcholine (2 mg/kg i.v.) and indomethacin (10 mg/kg i.v. in trizma 8.3 buffer, 9 minutes prior to leukotriene challenge). Submaximal bronchoconstrictor responses are established in control animals by varying the dose-levels of leukotriene. Intravenous dose-levels for LTC4 range from 0.4 to 0.6 μg/kg and for LTD4 the range is from 0.3 to 0.5 μg/kg. The aerosol bronchoprovocation dose for LTC4 is generated from 1.6 μM solution and for LTD4 from a 2.0 μM solution.
Test drugs (dissolved in a solvent such as propylene glycol, polyethylene glycol 400 or saline) are administered either intraduodenally, by aerosol or intragastrically at 2 or 10 minutes before induction of bronchospasm by administration of either LTC4 or LTD4 at the predetermined dose-levels. Aerosols of soluble drugs or leukotrienes are produced in-line for 10 seconds only by actuation of an ultrasonic nebulizer (Monaghan). Aerosolized drug dosage is expressed in terms of solution concentration and by a fixed aerosol exposure time (approximately 10 seconds). Control animals receive solvent (2 ml/kg i.d. or appropriate aerosol) in place of drug.
Respiratory volume changes are determined by a calibrated piston whose travel is recorded, via a linear transducer, on a Beckman Dynograph recorder. Maximal bronchoconstrictor volume is determined by clamping off the trachea at the end of the experiment. Overflow volumes at 1, 3 and 5 minutes are obtained from the recorded charts.
Area under the volume overflow curve (AUC) is estimated, using the overflow values at 1, 3 and 5 minutes, and expressed as a percentage of the maximal overflow AUC (equation 1): [formula] Drug effects are reported as percent inhibition of % max AUC values obtained from appropriate control animals (equation 2): [formula]
Student's t-test for unpaired data is used to determine statistical significance (p<0.05). IC50 values can also be determined by inverse prediction from linear regression lines through points between 10 and 90% inhibition.

In assay [2] the test system is ovalbumin induced bronchospasm. Briefly: In vivo inhibition of ovalbumin-induced bronchospasm mediated by endogenous mediators in sensitized guinea pigs. The settings on record: 50 mg/kg intraduodenal, 10 minutes before ovalbumin challenge. The arrangement: species or system guinea pig (male Hartley). On the procedure:
The assay of this Example measures the in vivo ability of the compounds of the invention to inhibit the bronchospasm induced in guinea pigs by endogenous mediators of the bronchoconstriction.
(§1) The assay is carried out as follows:
Male Hartley strain guinea pigs weighing 250-350 g are sensitized to chicken ovalbumin (OA) (10 mg i.p.) on days 1 and 3 and used starting on day 26. The animals are anesthetized with pentobarbital sodium (50 mg/kg, i.p.), bilateral vagotomy is performed, and the jugular vein is cannulated for injection of drugs and the carotid artery for monitoring blood pressure. The trachea is cannulated for artificial ventilation by miniature Starling pump and for indirect measurement of respiratory volume changes as described, infra. Succinylcholine (2 mg/kg, i.v.) is administered to arrest spontaneous respiration. […]
Respiratory volume changes are determined by a calibrated piston whose travel is recorded, via a linear transducer, on a Beckman Dynograph recorder. Maximal bronchoconstrictor volume is determined by clamping off the trachea at the end of the experiment. Overflow volumes at minutes 1, 3 and 5 are obtained from the recorded charts.
Area under the volume overflow curve (AUC) is estimated, using the overflow values at 1, 3 and 5 minutes, and expressed as a percentage of the maximal overflow AUC (equation 1): [formula] […]

Assay [3] relates to synthesis of 5-HETE by rat glycogen elicited polymorphonuclear leukocytes. In words: Inhibition of 5-HETE synthesis by rat glycogen-elicited polymorphonuclear leukocytes. The settings on record: rat PMN. It counts as cell-based, rat (female Wistar). On the procedure:
The assay of this Example measures the ability of the compounds of the invention to inhibit the synthesis of 5 -HETE by rat glycogen elicited polymorphonuclear leukocytes.
as §1
Peritoneal PMN are obtained from female Wistar rats (150-250 g) that received an i.p. injection of 6% glycogen (10 ml). After 24 hours, rats are killed by CO2 asphyxiation and peritoneal cells are harvested by peritoneal lavage using Ca^++ and Mg^++ free Hanks' balanced salt solution (HBSS). The peritoneal exudate is centrifuged at 400 g for 10 minutes. After centrifugation, the lavaged fluid is removed and the cell pellet is resuspended in HBSS containing Ca^++ and Mg^++ and 10 mM L-cysteine at a concentration of 2×10^7 cells/ml. To 1 ml portions of cell suspension, test drugs or vehicle are added and incubated at 37° C. for 10 minutes. Following this preincubation, the calcium ionophore (10 μM), A23187, is added together with 0.5 μCi [^14 C] arachidonic acid and further incubated for 10 minutes. The reaction is stopped by the addition of ice cold water (3 ml) and acidifying to pH 3.5. Lipoxygenase products are then extracted twice into diethyl ether. The pooled ether extracts are evaporated to dryness under nitrogen and the residue is redissolved in a small volume of methanol and spotted on aluminum backed pre-coated thin layer chromatographic plates. The samples are then co-chromatographed with authentic reference 5-HETE in the solvent system--hexane:ether:acetic acid (50:50:3). After chromatography, the areas associated with 5-HETE standard are identified by autoradiography, cut out and quantitated by liquid scintillation.
The compounds of this invention are tested in this assay at a level of 50 μm, unless otherwise noted. The results are summarized in Table 1, where those compounds having an inhibition of >50% are designated by a "+". Some results are expressed as an IC50 value.

Each structure is given as a SMILES string. Counter-ions that a name gives are not always drawn.

The % Inhibition is the share of the control response that was lost under treatment. Take `CN1CC(c2cccc(OCc3ccc4ccccc4n3)c2)OC1=O` (stereo not drawn) [1 (as HCL salt), 5-[3-[(2-Quinolinyl)methoxy]phenyl]-3-methyl-2-oxazolidone]: the “% Inhibition” value in assay [1] (50 mg/kg, intraduodenally) turned out to be 65%; in assay [1] (50 mg/kg, intragastrically), 46%.

Turning to `CN1CC(c2cccc(OCc3ccc4ccccc4n3)c2)OC1=O` (stereo not drawn) [1 (as free base), 5-[3-[(2-Quinolinyl)methoxy]phenyl]-3-methyl-2-oxazolidone], the “% Inhibition of Max AUC” value in assay [2] came out at 69%.

`CN1C[C@@H](c2cccc(OCc3ccc4ccccc4n3)c2)OC1=O` [Example 1 (as free base, R-enantiomer), 5-[3-[(2-Quinolinyl)methoxy]phenyl]-3-methyl-2-oxazolidone]: the “% Inhibition” value in assay [1] (50 mg/kg, intraduodenally) is 91%; in assay [1] (50 mg/kg, intragastrically), 65%. Further, the ED50 in assay [1] (Cavia porcellus, 10 min, printed on the intraduodenal line, read-out: IC50 (the source's name)) was found to be 8.6 mg/kg.

Regarding `CN1C[C@H](c2cccc(OCc3ccc4ccccc4n3)c2)OC1=O` [Example 1 (as free base, S-enantiomer), 5-[3-[(2-Quinolinyl)methoxy]phenyl]-3-methyl-2-oxazolidone], the “% Inhibition” value in assay [1] (50 mg/kg, intraduodenally) is reported as 99%.

For orientation: IC50 means the concentration that gives 50% inhibition. Read a low IC50 as higher potency. `CN1C[C@@H](c2cccc(OCc3ccc4ccccc4n3)c2)OC1=O` [Example 1, 5-[3-[(2-Quinolinyl)methoxy]phenyl]-3-methyl-2-oxazolidone] registered an IC50 in assay [3] (Leukocyte) of 19.6 µM. Also, in assay [3], the “>50% Inhibitory at 50 μm” value was “+ (inhibition of >50%)”.

As to `CN1CC(c2cccc(OCc3ccc4ccccc4n3)c2)OC1=S` (stereo not drawn) [Example 2, 5-[3-[(2-Quinolinyl)methoxy]phenyl]-3-methyl-2-thiaoxazolidone], in assay [3], the “>50% Inhibitory at 50 μm” value is given as “+ (inhibition of >50%)”.

With `CN1CC(c2cccc(OCc3nc4ccccc4n3C)c2)OC1=O` (stereo not drawn) [Example 4, 5-[3-[(1-Methyl-2-benzimidazoyl)]methoxy]phenyl-3-methyl-2-oxazolidone], the “% Inhibition” value in assay [1] (50 mg/kg, intraduodenally) turned out to be 65%.

For `CCC1=NCC(c2cccc(OCc3ccc4ccccc4n3)c2)O1` (stereo not drawn) [Example 5, 2-Ethyl-4,5-dihydro-5-[3-[(2-quinolinyl)methoxy]phenyl]-1,3-oxazole], in assay [1] (25 mg/kg, intraduodenally), the “% Inhibition” value came out at 77%.

As to `c1ccc(C2=NCC(c3cccc(OCc4ccc5ccccc5n4)c3)O2)nc1` (stereo not drawn) [Example 6, 4,5-Dihydro-5-[3-[(2-quinolinyl)methoxy]phenyl]-2-(2-pyridyl)-1,3-oxazole], the “% Inhibition” value in assay [1] (25 mg/kg, intraduodenally) is reported as 96%.

With `c1cc(OCc2ccc3ccccc3n2)cc(C2CN=C(c3cccs3)O2)c1` (stereo not drawn) [Example 7, 4,5-Dihydro-5-[3-[(2-quinolinyl)methoxy]phenyl]-2-(2-thienyl)-1,3-oxazole], in assay [1] (50 mg/kg, intraduodenally), the “% Inhibition” value worked out at 41%.

For `CCOC(=O)CC1=NCC(c2cccc(OCc3ccc4ccccc4n3)c2)O1` (stereo not drawn) [Example 8, 2-Ethoxycarbonylmethyl-4,5-dihydro-5-[3-[(2-quinolinyl)methoxy]phenyl]-1,3-oxazole], in assay [1] (25 mg/kg, intraduodenally), the “% Inhibition” value was found to be 72%.
